Results published in patent US8247211B2, “Glycopeptide antibiotics” (American Cyanamid Company, priority 2001, dated 2012).
Converted amounts (≈) assume the structure as drawn. Values belong to the compound of their own block, whether it stands above or below them.

How the values were obtained:
Assay in all cases: In vitro antibacterial evaluation: minimum inhibitory concentration (MIC), broth dilution method
Type in all cases: cell-based
[1] = system: Enterococcus sp.; conditions: broth dilution, 5×10^5 CFU/mL, 18 hours at 35° C.
Protocol: (§1) The minimum inhibitory concentration (MIC), the lowest concentration of the antibiotic which inhibits growth of the test organism, is determined by the broth dilution method using Muller-Hinton II […] (Baltimore Biological Laboratories) following the recommendations of the National Committee for Clinical Laboratory Standards [Methods for dilution antimicrobial susceptibility tests for bacteria that grow aerobically, approved standard M7-A2, National Committee for Clinical Laboratory Standards, Villanova, Pa].
(§2) An inoculum level of 5×10^5 CFU/mL, and a range of antibiotic concentrations (64-0.06 μg/mL) is used. […] The test organisms include a spectrum of Gram-positive bacteria comprised of Staphylococcus sp., Streptococcus sp. and Enterococcus sp. These organisms include recent clinical isolates that are resistant to methicillin, penicillin and/or vancomycin.

[2] = system: Escherichia coli; conditions: 5×10^5 CFU/mL, 18 hours at 35° C.
Protocol: as §1, §2

[3] = system: Staphylococcus sp.; conditions: for MIC Staphylococcus aureus (ATCC 29213): strain ATCC 29213; for MIC Staphylococcus aureus (GC 1131): strain GC 1131; for MIC Staphylococcus aureus (GC 3051): strain GC 3051; for MIC Staphylococcus aureus (GC 3053): strain GC 3053; for MIC Staphylococcus aureus (GC 4541): strain GC 4541; for MIC Staphylococcus aureus (GC 4542): strain GC 4542; for MIC Staphylococcus aureus-SMITH (GC 4543): strain GC 4543; for MIC Staphylococcus aureus (GC 4544): strain GC 4544; for MIC Staphylococcus aureus (GC 4545): strain GC 4545; for MIC Staphylococcus haemolyticus (GC 4546): strain GC 4546; for MIC Coagulase Negative Staphylococcus (GC 4547): strain GC 4547; for MIC Coagulase Negative Staphylococcus (GC 4548): strain GC 4548; for MIC Coagulase Negative Staphylococcus (GC 4549): strain GC 4549; for MIC Coagulase Negative Staphylococcus (GC 4551): strain GC 4551; for MIC Coagulase Negative Staphylococcus (GC 6257): strain GC 6257
Protocol: as §1, §2

[4] = system: Streptococcus sp.; conditions: broth dilution, 5×10^5 CFU/mL, 18 hours at 35° C.
Protocol: as §1, §2

[5] = broth dilution, 18 hours at 35° C.

SMILES: CCCCOC(=O)CCC1OCC2OC(OC3C(CO)OC(Oc4ccc(CC5NC(=O)C(C(C)c6ccccc6)NC(=O)CNC(=O)C(CO)NC(=O)C(C(O)C6CNC(=N)N6C6OC(CO)C(O)C(O)C6O)NC(=O)C(C(O)C6CNC(=N)N6)NC5=O)cc4)C(O)C3O)C(O)C(O)C2O1 (stereo not drawn) [Example 114, Cyclo[glycyl-β-methylphenylalanyl-O-[4-O-[4,6-O-(4-butoxy-4-oxobutylidene)hexopyranosyl]-hexopyranosyl]tyrosyl-3-(2-iminoimidazolidin-4-yl)seryl-3-(3-hexopyranosyl-2-iminoimidazolidin-4-yl)serylseryl]]
MIC Enterococccus avium (GC 4558) [1]: 8 µg/mL (≈ 5.57 µM)
MIC Enterococccus faecalis (ATCC 29212) [1]: 4 µg/mL (≈ 2.79 µM)
MIC Enterococccus faecalis (GC 2691) [1]: 4 µg/mL (≈ 2.79 µM)
MIC Enterococccus faecalis (GC 3059) [1]: 8 µg/mL (≈ 5.57 µM)
MIC Enterococccus faecalis (GC 4552) [1]: 4 µg/mL (≈ 2.79 µM)
MIC Enterococccus faecalis (GC 4553) [1]: 8 µg/mL (≈ 5.57 µM)
MIC Enterococccus faecalis (GC 4554) [1]: 4 µg/mL (≈ 2.79 µM)
MIC Enterococccus faecalis (GC 6189) [1]: 4 µg/mL (≈ 2.79 µM)
MIC Enterococccus faecium (GC 2243) [1]: 4 µg/mL (≈ 2.79 µM)
MIC Enterococccus faecium (GC 4556) [1]: 4 µg/mL (≈ 2.79 µM)
MIC Enterococccus faecium (GC 4557) [1]: 2 µg/mL (≈ 1.39 µM)
MIC Enterococcus faecalis (GC 2242) [1]: 4 µg/mL (≈ 2.79 µM)
MIC Escherichia coli (ATCC 25922) [2]: 64 µg/mL (≈ 44.6 µM)
MIC Escherichia coli (GC 4559) [2]: 64 µg/mL (≈ 44.6 µM)
MIC Escherichia coli (GC 4560) [2]: 1 µg/mL (≈ 0.697 µM)
MIC Staphylococcus aureus (ATCC 29213) [3]: 2 µg/mL (≈ 1.39 µM)
MIC Staphylococcus aureus (ATCC 29213) [3, 5]: 2 µg/mL (≈ 1.39 µM)
MIC Staphylococcus aureus (GC 1131) [3]: 2 µg/mL (≈ 1.39 µM)
MIC Staphylococcus aureus (GC 1131) [3, 5]: 2 µg/mL (≈ 1.39 µM)
MIC Staphylococcus aureus (GC 3051) [3]: 2 µg/mL (≈ 1.39 µM)
MIC Staphylococcus aureus (GC 3051) [3, 5]: 2 µg/mL (≈ 1.39 µM)
MIC Staphylococcus aureus (GC 3053) [3]: 2 µg/mL (≈ 1.39 µM)
MIC Staphylococcus aureus (GC 3053) [3, 5]: 2 µg/mL (≈ 1.39 µM)
MIC Staphylococcus aureus (GC 4541) [3]: 2 µg/mL (≈ 1.39 µM)
MIC Staphylococcus aureus (GC 4541) [3, 5]: 2 µg/mL (≈ 1.39 µM)
MIC Staphylococcus aureus (GC 4542) [3]: 1 µg/mL (≈ 0.697 µM)
MIC Staphylococcus aureus (GC 4542) [3, 5]: 1 µg/mL (≈ 0.697 µM)
MIC Staphylococcus aureus-SMITH (GC 4543) ([3]; 18 hours at 35° C.): 2 µg/mL (≈ 1.39 µM)
MIC Staphylococcus aureus-SMITH (GC 4543) [3, 5]: 2 µg/mL (≈ 1.39 µM)
MIC Staphylococcus aureus (GC 4544) [3]: 2 µg/mL (≈ 1.39 µM)
MIC Staphylococcus aureus (GC 4544) [3, 5]: 2 µg/mL (≈ 1.39 µM)
MIC Staphylococcus aureus (GC 4545) [3]: 2 µg/mL (≈ 1.39 µM)
MIC Staphylococcus aureus (GC 4545) [3, 5]: 2 µg/mL (≈ 1.39 µM)
MIC Staphylococcus haemolyticus (GC 4546) [3]: 1 µg/mL (≈ 0.697 µM)
MIC Staphylococcus haemolyticus (GC 4546) [3, 5]: 1 µg/mL (≈ 0.697 µM)
MIC Coagulase Negative Staphylococcus (GC 4547) [3]: 2 µg/mL (≈ 1.39 µM)
MIC Coagulase Negative Staphylococcus (GC 4547) [3, 5]: 2 µg/mL (≈ 1.39 µM)
MIC Coagulase Negative Staphylococcus (GC 4548) [3]: 1 µg/mL (≈ 0.697 µM)
MIC Coagulase Negative Staphylococcus (GC 4548) [3, 5]: 1 µg/mL (≈ 0.697 µM)
MIC Coagulase Negative Staphylococcus (GC 4549) [3]: 2 µg/mL (≈ 1.39 µM)
MIC Coagulase Negative Staphylococcus (GC 4549) [3, 5]: 2 µg/mL (≈ 1.39 µM)
MIC Coagulase Negative Staphylococcus (GC 4551) [3]: 2 µg/mL (≈ 1.39 µM)
MIC Coagulase Negative Staphylococcus (GC 4551) [3, 5]: 2 µg/mL (≈ 1.39 µM)
MIC Coagulase Negative Staphylococcus (GC 6257) [3]: 1 µg/mL (≈ 0.697 µM)
MIC Coagulase Negative Staphylococcus (GC 6257) [3, 5]: 1 µg/mL (≈ 0.697 µM)
MIC Streptococcus agalactiae (GC 4564) [4]: 0.5 µg/mL (≈ 0.348 µM)
MIC Streptococcus pneumoniae (GC 1894) [4]: <0.06 µg/mL
MIC Streptococcus pneumoniae (GC 4565) [4]: 0.25 µg/mL (≈ 0.174 µM)
MIC Streptococcus pneumonine (ATCC 6301) [4]: 0.12 µg/mL (≈ 0.0836 µM)
MIC Streptococcus pyogenes (GC 4563) [4]: 0.5 µg/mL (≈ 0.348 µM)

MIC Enterococccus avium (GC 4558) [1]: 1 to 2 µg/mL
MIC Enterococccus faecalis (ATCC 29212) [1]: 1 to 2 µg/mL
MIC Enterococccus faecalis (GC 2691) [1]: 1 to 2 µg/mL
MIC Enterococccus faecalis (GC 3059) [1]: 1 to 2 µg/mL
MIC Enterococccus faecalis (GC 4552) [1]: 1 to 2 µg/mL
MIC Enterococccus faecalis (GC 4553) [1]: 1 to 2 µg/mL
MIC Enterococccus faecalis (GC 4554) [1]: 1 to 2 µg/mL
MIC Enterococccus faecalis (GC 6189) [1]: 1 to 2 µg/mL
MIC Enterococccus faecium (GC 2243) [1]: 1 µg/mL (≈ 0.677 µM)
MIC Enterococccus faecium (GC 4556) [1]: <0.5 to 1 µg/mL
MIC Enterococccus faecium (GC 4557) [1]: <0.5 to 2 µg/mL
MIC Enterococcus faecalis (GC 2242) [1]: <0.5 to 2 µg/mL
MIC Escherichia coli (GC 4559) [2]: 16 µg/mL (≈ 10.8 µM)
MIC Escherichia coli (GC 4560) [2]: 1 µg/mL (≈ 0.677 µM)
MIC Staphylococcus aureus (ATCC 29213) [3]: <0.5 to 1 µg/mL
MIC Staphylococcus aureus (ATCC 29213) [3, 5]: <0.5 to 1 µg/mL
MIC Staphylococcus aureus (GC 1131) [3]: <0.5 to 1 µg/mL
MIC Staphylococcus aureus (GC 1131) [3, 5]: <0.5 to 1 µg/mL
MIC Staphylococcus aureus (GC 3051) [3]: <0.5 to 1 µg/mL
MIC Staphylococcus aureus (GC 3051) [3, 5]: <0.5 to 1 µg/mL
MIC Staphylococcus aureus (GC 3053) [3]: 1 µg/mL (≈ 0.677 µM)
MIC Staphylococcus aureus (GC 3053) [3, 5]: 1 µg/mL (≈ 0.677 µM)
MIC Staphylococcus aureus (GC 4541) [3]: <0.5 to 1 µg/mL
MIC Staphylococcus aureus (GC 4541) [3, 5]: <0.5 to 1 µg/mL
MIC Staphylococcus aureus (GC 4542) [3]: <0.5 to 1 µg/mL
MIC Staphylococcus aureus (GC 4542) [3, 5]: <0.5 to 1 µg/mL
MIC Staphylococcus aureus-SMITH (GC 4543) ([3]; 18 hours at 35° C.): <0.5 to 1 µg/mL
MIC Staphylococcus aureus-SMITH (GC 4543) [3, 5]: <0.5 to 1 µg/mL
MIC Staphylococcus aureus (GC 4544) [3]: <0.5 to 1 µg/mL
MIC Staphylococcus aureus (GC 4544) [3, 5]: <0.5 to 1 µg/mL
MIC Staphylococcus aureus (GC 4545) [3]: <0.5 to 1 µg/mL
MIC Staphylococcus aureus (GC 4545) [3, 5]: <0.5 to 1 µg/mL
MIC Coagulase Negative Staphylococcus (GC 4547) [3]: <0.5 to 1 µg/mL
MIC Coagulase Negative Staphylococcus (GC 4547) [3, 5]: <0.5 to 1 µg/mL
MIC Coagulase Negative Staphylococcus (GC 4551) [3]: <0.5 to 1 µg/mL
MIC Coagulase Negative Staphylococcus (GC 4551) [3, 5]: <0.5 to 1 µg/mL
MIC Streptococcus agalactiae (GC 4564) [4]: <0.06 µg/mL
MIC Streptococcus pneumoniae (GC 1894) [4]: <0.06 µg/mL
MIC Streptococcus pneumoniae (GC 4565) [4]: <0.06 µg/mL
MIC Streptococcus pneumonine (ATCC 6301) [4]: <0.06 µg/mL
MIC Streptococcus pyogenes (GC 4563) [4]: <0.06 µg/mL
SMILES: CC(c1ccccc1)C1NC(=O)CNC(=O)C(CO)NC(=O)C(C(O)C2CNC(=N)N2C2OC(CO)C(O)C(O)C2O)NC(=O)C(C(O)C2CNC(=N)N2)NC(=O)C(Cc2ccc(OC3OC(CO)C(OC4OC5COC(Cc6ccc(Br)cc6)OC5C(O)C4O)C(O)C3O)cc2)NC1=O (stereo not drawn) [Example 118, Cyclo[glycyl-β-methylphenylalanyl-O-[4-O-[4,6-O-(4-bromophenethylidene)hexopyranosyl]-hexopyranosyl]tyrosyl-3-(2-iminoimidazolidin-4-yl)seryl-3-(3-hexopyranosyl-2-iminoimidazolidin-4-yl)serylseryl]]
